Assay results published in US20170145005A1, “KINASE INHIBITOR” (THE UNIVERSITY OF TOKYO, priority 2014, published 2017).

Columns and labels:
[1] = target: PIM-3 kinase (Homo sapiens, UniProt Q86V86); experiment: Measurement of PIM-3 kinase inhibitory activity (fluorescent substrate peptide, capillary electrophoresis); assay type: biochemical; conditions: 30 μM ATP, 2 hours at room temperature
Description: 1.5 μM of fluorescent substrate peptide (FAM-AKRRRLSSLRA-COOH), 30 μM of ATP, and 0.0833 ng/μL of PIM-3 kinase were incubated with a compound for 2 hours at room temperature, and the Pim-3 kinase activity was measured. The reaction was quantified by separating the substrate and phosphorylation reaction product by capillary electrophoresis (using a Perkin-Elmer EZ reader II) based on the difference in their charges. The results are shown below in Tables 1 and 2.

[2] = system: MiaPaca-2; experiment: Growth inhibitory activity on human pancreatic cancer cell lines (Example 2, WST-8); assay type: cell-based; conditions: Homo sapiens, MIA PaCa-2; cultured for 96 hours, 2000 cells/well
Description: (§1) Two thousand cells of human pancreatic cancer cells lines (L3.6pl, MiaPaca-2, PANC-1, PCI35, PCI66) were seeded in a medium volume of 100 μL in each well of a 96-well microtiter plate. The medium was removed after 18 hours, and 100 μL/well of medium containing the test compound was added. Culture was continued for 72 or 96 hours. The medium containing the test compound was removed, and 100 μL/well of medium containing 10% WST-8 (Dojindo Laboratories Cell Counting kit-8) was added. After culturing for one hour, the OD 450 nm absorbance was measured, and the cell growth inhibitory activity was calculated. Furthermore, RPMI-1640 medium (Sigma) was used as the medium with 10% fetal calf serum (Invitrogen), 50 U/mL penicillin G (Sigma), and 50 μg/mL streptomycin (Sigma) added. The cell lines were cultured at 37° C. in a carbon dioxide incubator with a carbon dioxide concentration of 5%.
(§2) Tables 3 and 4 show the results of compound evaluation when cultured for 96 hours.

[3] = system: PCI35; experiment: as above; assay type: cell-based; conditions: cultured for 96 hours, 2000 cells/well
Description: as §1, §2

[4] = system: PCI66; experiment: as above; assay type: cell-based; conditions: cultured for 96 hours, 2000 cells/well
Description: as §1, §2

[5] = system: PCI66 cells; experiment: Animal study: subcutaneous PCI66 tumor in nude mice; assay type: in vivo, BALB/c nu/nu mice; conditions: 30 mg/kg intraperitoneal, once a day for five days then two days off, three cycles, from day 14 after tumor injection
Description: PCI66 cells, which are human pancreatic cancer cells, were suspended in Hanks balanced salt solution in a concentration of 2×10^7 cells/mL, and 100 μL of the cell suspension was injected subcutaneously to the backs of BALB/c nu/nu mice (SLC, Shizuoka, Japan). Drug administration was begun 14 days after tumor injection. The drug was administered once a day for five days intraperitoneally, then withheld for two days. This cycle was repeated three times. The tumor volume was calculated by the following formula.
Tumor volume(cm^3)=[maximum diameter](cm)×[minimum diameter]^2(cm)/2

[6] = system: L3.6pl; experiment: Growth inhibitory activity on human pancreatic cancer cell lines (Example 4, WST-8); assay type: cell-based; conditions: Example 4: 72 hours, 3000 cells/well
Description: (§3) Three thousand cells of human pancreatic cancer cell lines (L3.6pl, MiaPaca-2, PANC-1, PCI35, and PCI66) were seeded in a medium volume of 90 μL in each well of a 96-well microtiter plate. After 24 hours, 10 μL/well of medium containing the test compound was added. Culture was continued for 72 hours, and 10 μL/well of WST-8 (Dojindo Laboratories Cell Counting kit-8) was added. After culturing for 2 hours, the OD 450 nm absorbance was measured, and the cell growth inhibitory effect was calculated. The cell lines were cultured in a carbon dioxide incubator with a carbon dioxide concentration of 5%.

[7] = system: MiaPaca-2; experiment: as above; assay type: cell-based; conditions: MIA PaCa-2, Example 4: 72 hours, 3000 cells/well
Description: as §3

[8] = system: PANC-1; experiment: as above; assay type: cell-based; conditions: Example 4: 72 hours, 3000 cells/well
Description: as §3

[9] = system: PCI35; experiment: as above; assay type: cell-based; conditions: Example 4: 72 hours, 3000 cells/well
Description: as §3

[10] = system: PCI66; experiment: as above; assay type: cell-based; conditions: Example 4: 72 hours, 3000 cells/well
Description: as §3

IC50 [1] [µM] | IC50 [2] [µM] | IC50 [3] [µM] | IC50 [4] [µM] | IC50 [6] [µM] | IC50 [7] [µM] | IC50 [8] [µM] | IC50 [9] [µM] | IC50 [10] [µM] | SMILES | tumor volume [5]
0.0076 | 1.6 | 1.8 | 1.8 |  |  |  |  |  | COc1ccc2c(c1C(C)N1CCNCC1)O/C(=C\c1n[nH]c3ncccc13)C2=O (centres unmarked) [Compound 6, (Z)-2-[(1H-pyrazolo[3,4-b]pyridin-3-yl)methylene]-6-methoxy-7-[1-(piperazin-1-yl)ethyl]benzofuran-3(2H)-one] | suppress an increase in tumor volume
0.0045 |  |  |  | 3.8 | 3.5 | 3.3 | 6.8 | 3.9 | O=C1/C(=C/c2n[nH]c3ncccc23)Oc2c1ccc(F)c2CC1CCNCC1 [Compound 29, (Z)-2-[(1H-pyrazolo[3,4-b]pyridin-3-yl)methylene]-6-fluoro-7-(piperidin-4-ylmethyl)benzofuran-3(2H)-one] | 
0.00051 |  |  |  | 3.3 | 2.9 | 8.1 | 5.3 | 4.2 | COc1ccc2c(c1CN1CCC[C@H](N)C1)O/C(=C\c1n[nH]c3ncccc13)C2=O [Compound 32, (S,Z)-2-[(1H-pyrazolo[3,4-b]pyridin-3-yl)methylene]-7-[(3-aminopiperidin-1-yl)methyl]-6-methoxybenzofuran-3(2H)-one] | 

SMILES | IC50 [1] [µM] | IC50 [2] [µM] | IC50 [3] [µM] | IC50 [4] [µM] | IC50 [6] [µM] | IC50 [7] [µM] | IC50 [8] [µM] | IC50 [9] [µM] | IC50 [10] [µM] | tumor volume [5]
COc1ccc2c(c1CN1CC3CCC(C1)N3)O/C(=C\c1n[nH]c3ncccc13)C2=O [Compound 25, (Z)-2-[(1H-pyrazolo[3,4-b]pyridin-3-yl)methylene]-7-[(3,8-diazabicyclo[3.2.1]octan-3-yl)methyl]-6-methoxybenzofuran-3(2H)-one] | 0.00029 |  |  |  | 2.9 | 1.8 | 9.7 | 2.8 | 3.6 | 
